Experimental data taken from US12252524B2, “GIP/GLP1 co-agonist compounds” (Eli Lilly and Company, priority 2018, dated 2025).
Numbered stars: 1 amine (or outer) side, 2 acyl side, 3 side chain; on linkers, the order of the positions; unused ones are H or OH. Square brackets hold non-standard residues; d marks the D form. Side chains are listed from the residue outwards. Peptide text beside a SMILES is read from it. * marks the point of attachment. C20 diacid = O=C(O)CCCCCCCCCCCCCCCCCCC(=O)*; C18 diacid = O=C(O)CCCCCCCCCCCCCCCCC(=O)*; αMePhe(2-F) = C[C@](N)(Cc1ccccc1F)C(=O)O; γGlu = O=C(O)[C@H](CCC(=O)[*:2])N[*:1]; αMeY = C[C@](N)(Cc1ccc(O)cc1)C(=O)O; αMeL = CC(C)C[C@](C)(N)C(=O)O; AEEA = NCCOCCOCC(=O)O; Aib = CC(C)(N)C(=O)O

Experiments:
[1] = biological target: T1, human Gcg receptor (Homo sapiens, UniProt P47871); test: [125I]-Glucagon binding (SPA), human Gcg receptor; conditions: read-out: hGLcgR Ki, nM (SEM, n)
T1 construct: expressed in transfected cells; crude membranes
Outline: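 Scintillation counts are taken after membranes and WGA beads incubate and settle for 12 hours at room temperature. Buffer is 25 mM HEPES, pH 7.4, with CaCl2, MgCl2, bacitracin and Tween-20. Ki values, from four-parameter IC50 fits, are geometric means over independent days.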

[2] = biological target: T2, human GIP receptor (Homo sapiens, UniProt P48546); test: [125I]-GIP binding (SPA), human GIP receptor; conditions: read-out: hGIPR Ki, nM (SEM, n)
T2 construct: expressed in transfected cells; crude membranes
T2 sequence (P48546 22-466): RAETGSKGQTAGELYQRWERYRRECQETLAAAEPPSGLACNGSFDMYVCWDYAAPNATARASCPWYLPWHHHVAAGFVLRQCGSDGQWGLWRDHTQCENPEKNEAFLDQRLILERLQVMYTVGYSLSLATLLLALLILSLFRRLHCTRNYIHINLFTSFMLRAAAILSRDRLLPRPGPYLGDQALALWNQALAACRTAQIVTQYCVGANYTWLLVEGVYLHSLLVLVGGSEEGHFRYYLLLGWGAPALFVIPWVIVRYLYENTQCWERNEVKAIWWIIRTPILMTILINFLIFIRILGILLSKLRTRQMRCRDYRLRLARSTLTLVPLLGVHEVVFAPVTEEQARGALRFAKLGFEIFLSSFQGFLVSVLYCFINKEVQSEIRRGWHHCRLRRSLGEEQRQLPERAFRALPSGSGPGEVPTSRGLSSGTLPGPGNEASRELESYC

[3] = biological target: human GLP-1 receptor (GLP-1R) (Homo sapiens, UniProt P43220); test: cAMP pharmacological functional assay in presence of casein, hGLP-1R; assay type: cell-based; conditions: HEK293 cells expressing hGLP-1R, 0.1% Casein, geometric mean; read-out: hGLP1R cAMP Rel EC50 nM (SEM, n)
[4] = biological target: T3, gastric inhibitory peptide receptor (GIPR) (Homo sapiens, UniProt P48546); test: cAMP pharmacological functional assay in presence of casein, hGIPR; assay type: cell-based; conditions: HEK293 cells expressing hGIPR, 0.1% Casein, geometric mean; read-out: hGIPR cAMP Rel EC50 nM (SEM, n)
T3 sequence (P48546 22-466): T2 sequence (P48546 22-466)

[5] = biological target: T4, human GLP-1R (Homo sapiens, UniProt P43220); test: [125I]-GLP-1 binding (SPA), human GLP-1 receptor; parameters: expressed in transfected cells; crude membranes; conditions: read-out: hGLP1R Ki, (nM) (SEM, n)
Outline: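 Assay buffer: HEPES 25 mM, pH 7.4, CaCl2 2.5 mM, MgCl2 1 mM, with EDTA-free protease inhibitors. Receptor came from crude cell membranes prepared by homogenization and centrifugation at 4° C. IC50s came from four-parameter fits (maximum, minimum, IC50, Hill slope) and were expressed as Ki geometric means with SEM.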

[6] = biological target: T4, human GLP-1R; test: GLP-1R CHO cell β-arrestin recruitment assay; assay type: cell-based; parameters: host or cells: CHO-K1 PathHunter cells, assay-ready frozen; conditions: for EC50: CHO-K1 cells, PathHunter β-arrestin-2 recruitment, 0.1% casein, read-out: hGLP1R B-Arrestin2 Rel EC50 uM (SEM, n); for hGLP1R B-Arrestin2 % Top: normalized to GLP-1 maximum control
Outline: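 Peptide-induced β-arrestin-2 recruitment measured by enzyme-fragment complementation luminescence after 90 min at 37 °C plus 60 min detection at RT.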

[7] = biological target: T4, human GLP-1R; test: GLP-1R HEK293 cell membrane [35S]GTPγS binding assay; assay type: biochemical; parameters: expressed in transfected cells; host or cells: HEK293 cells expressing human GLP-1R; membranes; conditions: HEK293 cell membranes expressing human GLP-1R, [35S]GTPγS binding; read-out: hGLP1R GTPgS Rel EC50 nM (SEM, n)
Outline: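 Agonist-driven Gαs activation read as [35S]GTPγS ([…]) binding to receptor-expressing HEK293 membranes, 30 min at room temperature, pH 7.4. Detection by anti-Gαs immunocapture on scintillation beads; EC50 derived from four-parameter logistic concentration-response fit.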

T4 sequence (P43220 24-463): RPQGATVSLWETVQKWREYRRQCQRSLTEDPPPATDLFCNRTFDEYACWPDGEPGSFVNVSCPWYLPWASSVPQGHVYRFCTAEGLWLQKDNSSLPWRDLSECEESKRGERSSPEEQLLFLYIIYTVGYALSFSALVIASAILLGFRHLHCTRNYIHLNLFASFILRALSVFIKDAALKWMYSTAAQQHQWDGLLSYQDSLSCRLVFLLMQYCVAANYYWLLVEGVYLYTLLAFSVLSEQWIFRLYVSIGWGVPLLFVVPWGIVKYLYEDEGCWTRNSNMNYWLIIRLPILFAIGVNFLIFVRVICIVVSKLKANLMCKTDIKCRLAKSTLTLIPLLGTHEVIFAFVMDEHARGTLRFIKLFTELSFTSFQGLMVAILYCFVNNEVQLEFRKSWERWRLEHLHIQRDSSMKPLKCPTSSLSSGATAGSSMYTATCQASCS
Chain of human GLP-1 receptor (GLP-1R) (P43220 24-463): as above
T1 sequence (P47871 26-477): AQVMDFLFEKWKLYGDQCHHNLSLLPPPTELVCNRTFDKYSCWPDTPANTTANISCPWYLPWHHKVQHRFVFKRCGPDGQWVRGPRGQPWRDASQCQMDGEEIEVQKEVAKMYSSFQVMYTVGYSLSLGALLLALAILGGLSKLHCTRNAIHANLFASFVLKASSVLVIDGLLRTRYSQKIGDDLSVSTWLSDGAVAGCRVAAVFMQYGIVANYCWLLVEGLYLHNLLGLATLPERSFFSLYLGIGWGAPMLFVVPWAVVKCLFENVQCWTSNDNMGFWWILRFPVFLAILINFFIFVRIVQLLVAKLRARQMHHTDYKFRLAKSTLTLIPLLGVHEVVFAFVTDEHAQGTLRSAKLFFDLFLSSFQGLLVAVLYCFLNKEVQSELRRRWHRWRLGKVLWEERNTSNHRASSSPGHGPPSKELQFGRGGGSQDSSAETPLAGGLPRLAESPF

Row | SMILES | Ki [1] [nM] | Ki [2] [nM] | EC50 [3] [nM] | EC50 [4] [nM] | Ki [5] [nM] | EC50 [6] [µM] | hGLP1R B-Arrestin2 % Top [6] [%] | EC50 [7] [nM]
1 | CC[C@H](C)[C@H](NC(=O)[C@H](CC(C)C)NC(=O)[C@](C)(Cc1ccc(O)cc1)NC(=O)[C@H](CCC(=O)O)NC(=O)[C@@H](NC(=O)[C@H](Cc1ccccc1)NC(=O)[C@H](CCC(=O)O)NC(=O)C(C)(C)NC(=O)[C@H](CCC(N)=O)NC(=O)[C@H](C)NC(=O)[C@H](CCCCNC(=O)COCCOCCNC(=O)COCCOCCNC(=O)CC[C@H](NC(=O)CCCCCCCCCCCCCCCCCCC(=O)O)C(=O)O)NC(=O)[C@H](CCCCN)NC(=O)[C@H](CC(=O)O)NC(=O)[C@H](CC(C)C)NC(=O)[C@](C)(CC(C)C)NC(=O)[C@@H](NC(=O)[C@H](CO)NC(=O)[C@H](Cc1ccc(O)cc1)NC(=O)[C@H](CC(=O)O)NC(=O)[C@H](CO)NC(=O)[C@@H](NC(=O)[C@H](Cc1ccccc1)NC(=O)[C@@H](NC(=O)CNC(=O)[C@H](CCC(=O)O)NC(=O)C(C)(C)NC(=O)[C@H](N)Cc1ccc(O)cc1)[C@@H](C)O)[C@@H](C)O)[C@@H](C)CC)[C@@H](C)CC)C(=O)N[C@@H](C)C(=O)NCC(=O)NCC(=O)N1CCC[C@H]1C(=O)N[C@@H](CO)C(=O)N[C@@H](CO)C(=O)NCC(=O)N[C@@H](C)C(=O)N1CCC[C@H]1C(=O)N1CCC[C@H]1C(=O)N1CCC[C@H]1C(=O)N[C@@H](CO)C(N)=O [Example 292] (H-[dY][Aib]EGTFTSDYSI[αMeL]LDKK([AEEA-AEEA-γGlu-C20 diacid])AQ[Aib]EFIE[αMeY]LIAGGPSSGAPPPS-NH2; N-terminus assumed) | 595 | 0.0547 | 0.183 | 0.0682 | 1.19 | 0.00774 | 29.0 | 0.429
2 | CC[C@H](C)[C@H](NC(=O)[C@H](CC(C)C)NC(=O)[C@](C)(Cc1ccc(O)cc1)NC(=O)[C@H](CCC(=O)O)NC(=O)[C@@H](NC(=O)[C@H](Cc1ccccc1)NC(=O)[C@H](CCC(=O)O)NC(=O)C(C)(C)NC(=O)[C@H](CCC(N)=O)NC(=O)[C@H](C)NC(=O)[C@H](CCCCNC(=O)COCCOCCNC(=O)COCCOCCNC(=O)CC[C@H](NC(=O)CCCCCCCCCCCCCCCCCCC(=O)O)C(=O)O)NC(=O)[C@H](CCCN)NC(=O)[C@H](CC(=O)O)NC(=O)[C@H](CC(C)C)NC(=O)[C@](C)(CC(C)C)NC(=O)[C@@H](NC(=O)[C@H](CO)NC(=O)[C@H](Cc1ccc(O)cc1)NC(=O)[C@H](CC(=O)O)NC(=O)[C@H](CO)NC(=O)[C@@H](NC(=O)[C@H](Cc1ccccc1)NC(=O)[C@@H](NC(=O)CNC(=O)[C@H](CCC(=O)O)NC(=O)C(C)(C)NC(=O)[C@H](N)Cc1ccc(O)cc1)[C@@H](C)O)[C@@H](C)O)[C@@H](C)CC)[C@@H](C)CC)C(=O)N[C@@H](C)C(=O)NCC(=O)NCC(=O)N1CCC[C@H]1C(=O)N[C@@H](CO)C(=O)N[C@@H](CO)C(=O)NCC(=O)N[C@@H](C)C(=O)N1CCC[C@H]1C(=O)N1CCC[C@H]1C(=O)N1CCC[C@H]1C(=O)N[C@@H](CO)C(N)=O [Example 293] | 668 | 0.0775 | 0.132 | 0.0562 | 1.64 | 0.00719 | 29.5 | 0.368
3 | CC[C@H](C)[C@H](NC(=O)[C@H](CC(C)C)NC(=O)[C@H](Cc1ccc(O)cc1)NC(=O)[C@H](CCC(=O)O)NC(=O)[C@@H](NC(=O)[C@H](Cc1ccccc1)NC(=O)[C@H](C)NC(=O)C(C)(C)NC(=O)[C@H](CCC(N)=O)NC(=O)[C@H](C)NC(=O)[C@H](CCCCNC(=O)COCCOCCNC(=O)COCCOCCNC(=O)CC[C@H](NC(=O)CCCCCCCCCCCCCCCCC(=O)O)C(=O)O)NC(=O)[C@H](CCCCN)NC(=O)[C@H](CC(=O)O)NC(=O)[C@H](CC(C)C)NC(=O)[C@H](CC(C)C)NC(=O)[C@@H](NC(=O)[C@H](CO)NC(=O)[C@H](Cc1ccc(O)cc1)NC(=O)[C@H](CC(=O)O)NC(=O)[C@H](CO)NC(=O)[C@@H](NC(=O)[C@](C)(Cc1ccccc1F)NC(=O)[C@@H](NC(=O)CNC(=O)[C@H](CCC(=O)O)NC(=O)C(C)(C)NC(=O)[C@@H](N)Cc1ccc(O)cc1)[C@@H](C)O)[C@@H](C)O)[C@@H](C)CC)[C@@H](C)CC)C(=O)N[C@@H](CCC(=O)O)C(=O)NCC(=O)NCC(=O)N1CCC[C@H]1C(=O)N[C@@H](CO)C(=O)N[C@@H](CO)C(=O)NCC(N)=O [Example 302] (H-Y[Aib]EGT[αMePhe(2-F)]TSDYSILLDKK([AEEA-AEEA-γGlu-C18 diacid])AQ[Aib]AFIEYLIEGGPSSG-NH2) | 18.5 | 0.0289 | 0.0275 | 0.0308 | 0.617 | 0.00219 | 98.4 | 0.268
4 | CC[C@H](C)[C@H](NC(=O)[C@H](CC(C)C)NC(=O)[C@H](Cc1ccc(O)cc1)NC(=O)[C@H](CCC(=O)O)NC(=O)[C@@H](NC(=O)[C@H](Cc1ccccc1)NC(=O)[C@H](C)NC(=O)C(C)(C)NC(=O)[C@H](CCC(N)=O)NC(=O)[C@H](C)NC(=O)[C@H](CCCCNC(=O)COCCOCCNC(=O)COCCOCCNC(=O)CC[C@H](NC(=O)CCCCCCCCCCCCCCCCC(=O)O)C(=O)O)NC(=O)[C@H](CCCCN)NC(=O)[C@H](CC(=O)O)NC(=O)[C@H](CC(C)C)NC(=O)[C@H](CC(C)C)NC(=O)[C@@H](NC(=O)[C@H](CO)NC(=O)[C@H](Cc1ccc(O)cc1)NC(=O)[C@H](CC(=O)O)NC(=O)[C@H](CO)NC(=O)[C@@H](NC(=O)[C@H](Cc1ccccc1)NC(=O)[C@@H](NC(=O)CNC(=O)[C@H](CCC(=O)O)NC(=O)C(C)(C)NC(=O)[C@@H](N)Cc1ccc(O)cc1)[C@@H](C)O)[C@@H](C)O)[C@@H](C)CC)[C@@H](C)CC)C(=O)N[C@@H](CCC(=O)O)C(=O)NCC(=O)NCC(=O)N1CCC[C@H]1C(=O)N[C@@H](CO)C(=O)N[C@@H](CO)C(=O)NCC(=O)N[C@@H](C)C(=O)N1CCC[C@H]1C(=O)N1CCC[C@H]1C(=O)N1CCC[C@H]1C(=O)N[C@@H](CO)C(N)=O [Example 315] | 539 | 0.0677 | 0.0651 | 0.0408 | 2.28 | 0.0199 | 25.4 | 0.601
5 | CC[C@H](C)[C@H](NC(=O)[C@H](CC(C)C)NC(=O)[C@H](Cc1ccc(O)cc1)NC(=O)[C@H](CCC(=O)O)NC(=O)[C@@H](NC(=O)[C@H](Cc1ccccc1)NC(=O)[C@H](C)NC(=O)C(C)(C)NC(=O)[C@H](CCC(N)=O)NC(=O)[C@H](C)NC(=O)[C@H](CCCCNC(=O)COCCOCCNC(=O)COCCOCCNC(=O)CC[C@H](NC(=O)CCCCCCCCCCCCCCCCCCC(=O)O)C(=O)O)NC(=O)[C@H](CCCCN)NC(=O)[C@H](CC(=O)O)NC(=O)[C@H](CC(C)C)NC(=O)[C@](C)(CC(C)C)NC(=O)[C@@H](NC(=O)[C@H](CO)NC(=O)[C@H](Cc1ccc(O)cc1)NC(=O)[C@H](CC(=O)O)NC(=O)[C@H](CO)NC(=O)[C@@H](NC(=O)[C@H](Cc1ccccc1)NC(=O)[C@@H](NC(=O)CNC(=O)[C@H](CCC(=O)O)NC(=O)C(C)(C)NC(=O)[C@@H](N)Cc1ccccc1)[C@@H](C)O)[C@@H](C)O)[C@@H](C)CC)[C@@H](C)CC)C(=O)N[C@@H](CCC(=O)O)C(=O)NCC(=O)NCC(=O)N1CCC[C@H]1C(=O)N[C@@H](CO)C(=O)N[C@@H](CO)C(=O)NCC(=O)N[C@@H](C)C(=O)N1CCC[C@H]1C(=O)N1CCC[C@H]1C(=O)N1CCC[C@H]1C(=O)N[C@@H](CO)C(N)=O [Example 327] (H-F[Aib]EGTFTSDYSI[αMeL]LDKK([AEEA-AEEA-γGlu-C20 diacid])AQ[Aib]AFIEYLIEGGPSSGAPPPS-NH2; N-terminus assumed) | 114 | 0.0667 | 0.27 | 0.0548 | 2.1 | 0.00379 | 41.6 | 0.287
